Key:
[1] = biological target: T1, Prostaglandin E synthase (Homo sapiens, UniProt O14684); assay: Inhibition of mPGES1 in IL-1beta-stimulated human A549 cell assessed as inhibition of PGE2 production preincubated for 15 mins before substrate addition by RP-HPLC method
T1 sequence (O14684 whole entry): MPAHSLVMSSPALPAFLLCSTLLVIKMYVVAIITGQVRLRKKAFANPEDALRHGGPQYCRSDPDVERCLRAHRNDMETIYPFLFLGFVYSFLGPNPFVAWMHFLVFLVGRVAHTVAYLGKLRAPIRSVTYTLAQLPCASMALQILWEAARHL

[2] = biological target: T2, Prostaglandin E synthase (Homo sapiens) (UniProt O14684); assay: Inhibition of mPGES1 in IL-1beta-stimulated human A549 cell assessed as remaining activity measuring of PGE2 level at 10 uM preincubated for 15 mins before substrate addition by RP-HPLC method
T2 sequence (whole entry): T1 sequence (O14684 whole entry)

[3] = biological target: T3, Polyunsaturated fatty acid 5-lipoxygenase (Homo sapiens, UniProt P09917); assay: Inhibition of human recombinant 5-lipoxygenase in cell-free system preincubated for 10 mins before substrate arachidonic acid addition measured after 10 mins by RP-HPLC method
T3 sequence (P09917 whole entry): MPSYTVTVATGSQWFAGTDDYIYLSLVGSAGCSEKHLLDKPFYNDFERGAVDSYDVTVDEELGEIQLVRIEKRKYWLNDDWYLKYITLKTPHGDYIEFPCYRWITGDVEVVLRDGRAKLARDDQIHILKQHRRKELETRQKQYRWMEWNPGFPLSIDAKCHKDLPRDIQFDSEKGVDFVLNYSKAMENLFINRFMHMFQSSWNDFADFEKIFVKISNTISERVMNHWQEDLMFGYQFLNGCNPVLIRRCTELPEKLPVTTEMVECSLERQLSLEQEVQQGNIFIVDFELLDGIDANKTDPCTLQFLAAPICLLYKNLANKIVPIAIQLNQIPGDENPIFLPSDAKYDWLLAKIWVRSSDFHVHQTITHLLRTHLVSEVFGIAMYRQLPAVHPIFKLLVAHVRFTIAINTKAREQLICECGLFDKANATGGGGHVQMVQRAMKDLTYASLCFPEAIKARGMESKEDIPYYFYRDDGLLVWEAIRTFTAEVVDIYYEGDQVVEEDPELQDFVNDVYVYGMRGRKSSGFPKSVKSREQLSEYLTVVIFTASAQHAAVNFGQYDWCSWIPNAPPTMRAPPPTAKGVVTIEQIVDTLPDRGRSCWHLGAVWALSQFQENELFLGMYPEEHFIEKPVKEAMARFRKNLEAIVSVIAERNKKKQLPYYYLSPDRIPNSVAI

[4] = biological target: T3, Polyunsaturated fatty acid 5-lipoxygenase; assay: Inhibition of 5-lipoxygenase in human neutrophil preincubated for 15 mins before substrate arachidonic acid addition measured after 10 mins by HPLC method
[5] = biological target: T4, Polyunsaturated fatty acid 5-lipoxygenase (Homo sapiens) (UniProt P09917); assay: Inhibition of human recombinant 5-lipoxygenase in cell-free system assessed as remaining activity at 10 uM preincubated for 10 mins before substrate arachidonic acid addition measured after 10 mins by RP-HPLC method
T4 sequence (whole entry): T3 sequence (P09917 whole entry)

[6] = biological target: T4, Polyunsaturated fatty acid 5-lipoxygenase (Homo sapiens); assay: Inhibition of 5-lipoxygenase in human neutrophil assessed as remaining activity at 10 uM preincubated for 15 mins before substrate arachidonic acid addition measured after 10 mins by HPLC method
[7] = organism: Rattus norvegicus; assay: Inhibition of mPGES1 in rat microsomal membranes assessed as inhibition of PGE2 production at 10 uM after 40 seconds by enzyme immunoassay; assay type: microsomes; conditions: Microsome

inhibition [7] [%]	SMILES	IC50 [1] [µM]	Activity [2] [%]	IC50 [3] [µM]	IC50 [4] [µM]	Activity [5] [%]	Activity [6] [%]
–	O=C(O)c1ccc(Cn2cc(-c3ccc(-c4ccccc4C(=O)O)cc3)nn2)c([N+](=O)[O-])c1	> 10	94.1	> 10	> 10	75.3	65.9
–	O=C(O)c1ccc(Cn2cc(-c3ccc(-c4ccc(O)cc4)cc3)nn2)c([N+](=O)[O-])c1	> 10	74.2	6.8	> 10	–	108
–	O=C(O)c1ccc(Cn2cc(-c3ccc(-c4ccccc4COc4cc(C(F)(F)F)ccc4Cl)cc3)nn2)cc1	1	–	1.47	2	–	–
–	Nc1cc(C(=O)O)ccc1Cn1cc(-c2ccc(-c3ccccc3COc3cc(C(F)(F)F)ccc3Cl)cc2)nn1	0.68	–	0.9	2.1	–	–
–	O=C(O)c1ccc(Cn2cc(-c3ccc(-c4cccs4)cc3)nn2)c([N+](=O)[O-])c1	5.5	–	> 10	> 10	52.2	89.7
–	O=C(O)c1ccc(Cn2cc(-c3ccc(-c4ccccc4)cc3)nn2)c([N+](=O)[O-])c1	< 3.2	–	–	–	–	–
–	O=C(O)c1ccc(Cn2cc(-c3ccc(-c4cccc(C(=O)N5CCOCC5)c4)cc3)nn2)c([N+](=O)[O-])c1	> 10	88.9	> 10	> 10	62.7	125
–	COc1cc(-c2ccc(-c3cn(Cc4ccc(C(=O)O)cc4[N+](=O)[O-])nn3)cc2)cc(OC)c1OC	> 10	54.3	> 10	> 10	64.3	90.2
–	Nc1ccc(-c2ccc(-c3cn(Cc4ccc(C(=O)O)cc4[N+](=O)[O-])nn3)cc2)cc1	> 10	65.5	> 10	> 10	63.5	100
–	O=C(O)c1ccc(-c2ccc(-c3cn(Cc4ccc(C(=O)O)cc4[N+](=O)[O-])nn3)cc2)cc1	> 10	93	> 5	> 5	–	–
–	COc1ccc(-c2ccc(-c3cn(Cc4ccc(C(=O)O)cc4[N+](=O)[O-])nn3)cc2)cc1CN1CCOCC1	> 10	87.4	> 10	> 10	84.9	111
–	O=C(O)c1cccc(-c2ccc(-c3cn(Cc4ccc(C(=O)O)cc4[N+](=O)[O-])nn3)cc2)c1	> 10	82.1	> 10	> 10	74.7	124
–	CN(C)c1ccc2cc(S(=O)(=O)Nc3ccc(-c4ccc(-c5cn(Cc6ccc(C(=O)O)cc6[N+](=O)[O-])nn5)cc4)cc3)ccc2c1	> 10	72.5	6.1	> 10	–	96.5
–	O=C(O)c1ccc(S(=O)(=O)n2cc(-c3ccc(-c4ccccc4COc4cc(C(F)(F)F)ccc4Cl)cc3)nn2)cc1	> 10	78.6	1.96	1.2	–	–
–	O=C(O)c1ccc(Cn2cc(-c3ccc(-c4ccccc4COc4cc(C(F)(F)F)ccc4Cl)cc3)nn2)c([N+](=O)[O-])c1	1.2	–	2	5.3	–	–
82	CC(C)c1ccc2c(c1)c(SC(C)(C)C)c(CC(C)(C)C(=O)O)n2Cc1ccc(Cl)cc1	–	–	–	–	–	–
–	O=C(O)c1ccc(Cn2cc(-c3ccc(-c4cccc(O)c4)cc3)nn2)c([N+](=O)[O-])c1	> 10	55.6	> 10	> 10	80.2	114
